The values that follow come from article PMC9076067 (RSC Advances, 2019).

The nature of data set [1]: parallel artificial membrane permeability assay. The data set is classed as in vitro ADME. Conditions: 200 μM in PBS pH 7.4, five hours, room temperature.
In data set [2] the test system is Staphylococcus aureus ATCC6538. Nature of the data set: MIC/MBC by micro-dilution broth method. The class given is cell-based. Conditions: S. aureus ATCC 6538. Background: Broth dilution looks for growth in wells or tubes with falling amounts of substance.
Data set [3] relates to Staphylococcus aureus ATCC43300. Nature of the data set: MIC/MBC by micro-dilution broth method. Conditions: S. aureus ATCC 43300. The class given is cell-based.
Data set [4] deals with Staphylococcus epidermidis ATCC12228. Description: MIC/MBC by micro-dilution broth method. The data set is classed as cell-based. The conditions noted are these: S. epidermidis ATCC 12228.
For data set [5], the system named is Micrococcus luteus ATCC10240. Nature of the data set: MIC/MBC by micro-dilution broth method. The data set is classed as cell-based.
In data set [6] the test system is Streptococcus mutans ATCC25175. Description: MIC/MBC by micro-dilution broth method. The class given is cell-based. Conditions: S. mutans ATCC 25175.
The subject of a further data set is Staphylococcus aureus. Conditions: cited from earlier work.
The subject of another data set is MRSA. The conditions noted are these: cited from earlier work.

≈ marks a conversion by molar mass, not a printed value.

Consider `O=C(O)CN1C(=O)/C(=C/c2ccc(-c3ccc(N(c4ccccc4)c4ccccc4)cc3)c3ccccc23)SC1=S` [5b, (Z)-2-(5-((4-(4-(Diphenylamino)phenyl)naphthalen-1-yl)methylene)-4-oxo-2-thioxothiazolidin-3-yl)acetic acid], for which the “ability to penetrate the membrane (PAMPA)” value in data set [1] is “none of the tested compounds had the ability to penetrate the cell membrane”.
Still for that read-out and setting: for `O=C(O)CN1C(=O)/C(=C/c2c3ccccc3c(-c3ccc(N(c4ccccc4)c4ccccc4)cc3)c3ccccc23)SC1=S` [5c, (Z)-2-(5-((10-(4-(Diphenylamino)phenyl)anthracen-9-yl)methylene)-4-oxo-2-thioxothiazolidin-3-yl)acetic acid] the value was “none of the tested compounds had the ability to penetrate the cell membrane”.
Regarding `O=C(O)CN1C(=O)/C(=C/c2ccc(-c3ccc(N(c4ccccc4)c4ccccc4)cc3)cc2)NC1=S` [7a, (Z)-2-(5-((4′-(Diphenylamino)-(1,1′-biphenyl)-4-yl)methylene)-4-oxo-2-thioxoimidazolidin-3-yl)acetic acid], the MIC (as a rule, the smallest concentration in the dilution series that meets the test's criterion for growth inhibition) came to 1.95 µg/mL (≈ 3.86 µM) in data set [2]; 1.95 µg/mL (≈ 3.86 µM) in data set [3]; 1.95 µg/mL (≈ 3.86 µM) in data set [4]; 1.95 µg/mL (≈ 3.86 µM) in data set [5] (M. luteus ATCC 10240); 62.5 µg/mL (≈ 124 µM) in data set [6]. Also, the MIC/MBC in data set [5] (ratio, ATCC 10240) is given as 16.
Take `O=C1NC(=S)SC1=Cc1ccc(F)c(F)c1F` [5-(2,3,4-trifluorobenzylidene)-rhodanine]: the concentration inhibiting growth is 0.5 mg/L in the data set with Staphylococcus aureus and 32 mg/L with MRSA.
For `O=C(O)CN1C(=O)/C(=C/c2ccc(-c3ccc(N(c4ccccc4)c4ccccc4)cc3)cc2)SC1=S` [5a, (Z)-2-(5-((4′-(Diphenylamino)-(1,1′-biphenyl)-4-yl)methylene)-4-oxo-2-thioxothiazolidin-3-yl)acetic acid], the “ability to penetrate the membrane (PAMPA)” value in data set [1] was “none of the tested compounds had the ability to penetrate the cell membrane”.
